Measurements: ChEMBL document CHEMBL3507680, “University of Dundee, Gates Library screen for HepG2 cell viability”

Test: Human HepG2 cell viability assay in 384 well format
Format: toxicity, cell-based
Set-up: dose 125 nL, time 70.5 hour; cytotoxicity at 70.5 h: concentration not given beside the values
Conditions: HepG2 cells, read-out: Inhibition

SMILES	cytotoxicity at 70.5 h [%]
Cc1nn(C)cc1CN(C)C(=O)c1ccccn1	1.81
CCOC1CCN(C(=O)NCCc2ccn(-c3ccccc3)n2)CC1	-2.77
N#Cc1c(Cl)nsc1NCc1ccc(N2CCSCC2)cc1	12.7
Cc1ccccc1CN(CCN(C)C)Cc1ccc(S(C)(=O)=O)cc1	4.23
COC(=O)C1CN(CC(=O)Nc2cccc(OC)c2)c2ccccc21 (configuration not stated)	-9.39
Cc1cccc2nc(C(=O)N3CCC(Nc4cccnn4)CC3)cn12	-21.3
Cc1noc(C)c1-c1ccc(C2CCCN2C(=O)c2cccnn2)nc1 (configuration not stated)	19.1
CC(C)c1nccn1CCn1cnc2ccsc2c1=O	-8.28
CCc1sc(-c2nnc(CNCCn3cc(C)cn3)o2)cc1C	-1.42
CCNS(=O)(=O)c1cnccc1N1CCN(CCO)CC1	4.82
c1ccc(CCN2CCN(c3ccc4nncn4n3)CC2)nc1	-6.96
COc1ccc(C(C)CCNC2CCN(c3ccccn3)CC2)cc1 (configuration not stated)	22
CN(C)S(=O)(=O)NCC1(c2ccccc2Br)CC1	13.4
Cc1noc(C)c1CN(C)Cn1nccc1-c1cccnc1	10.8
Cn1cccc1C(=O)N1C[C@H]2CC[C@@H]1CN(Cc1cscn1)C2	1.29
NC(=O)COc1cccc(C(=O)N2CCCC(n3ccnc3)C2)c1 (configuration not stated)	-14.8
Cc1nn(C)c(C)c1-c1ccnc(N2CCCN(CC(C)C)CC2)n1	4.01
CN(C)c1ccc(CNC2=NCCCN2)cc1	13.3
CN(C)c1ccc(C(=O)NCc2csc(Br)c2)cn1	-11
COc1c(C2CCCN2CC(=O)Nc2cc(C)no2)c(C)nn1C (configuration not stated)	-10.7
Cc1c(C(=O)N2CCOCC2)n(C)c2ccc(Cl)cc12	-10.5
Cc1ncncc1C(=O)N1CCCN(Cc2cnn(C(C)C)c2)CC1	8.58
COc1cc(CNc2cnn(CCN3CCOCC3)c2)cc(OC)c1	-20.4

SMILES	cytotoxicity at 70.5 h [%]
CN(Cc1ccc(F)cc1)[C@@H]1CN(S(C)(=O)=O)C[C@H]1O	-4.5
COc1cccc(CC(=O)N2CCCC(c3n[nH]c4nccnc34)C2)c1 (configuration not stated)	-10.4
Cc1ccc(CN2CC[C@H]3CO[C@H](CN4CCN(C)CC4)[C@H]3C2)o1	-7.33
Cc1ccc(C)c2c(C)c(C(=O)NCCCn3ccnn3)[nH]c12	43.6
CCS(=O)(=O)NCCNC(=O)N(Cc1ccc(C)o1)C(C)C	-13.2
O=C(CCn1ccc2ccccc21)N1CCN(Cc2cccnc2)CC1	17.7
FC(F)(F)Cn1ccnc1CNCC1CCCN1c1cccnn1 (configuration not stated)	-13.2
Cn1c(C(=O)N2CCOCC2)nc2c1CCN(c1ncccn1)C2	-1.44
CCc1nc(CN(C)C(=O)c2cc(NC(C)=O)ccc2Cl)no1	18.6
Cc1ccc(CNC(=O)N2CCCC(NS(C)(=O)=O)C2)cc1 (configuration not stated)	2.89
CCc1nc(CN2CCN(C(=O)c3csnn3)CC2)cs1	-0.125
Cc1noc(C)c1C(=O)N1C[C@@H]2CN(Cc3cccnc3)CCO[C@@H]2C1	-7.03
CCc1ccccc1C(=O)N1C[C@@H](CN2CCOCC2)[C@@H](CO)C1	27.9
COc1ccc(C(=O)N(C)Cc2cc(C)on2)c(F)c1	-10.6
CCc1nc(CN2CCCN(C(=O)CCOC(C)C)CC2)cs1	0.154
COC1COC2(CCN(C(=O)c3ccc4ccccc4c3)CC2)C1 (configuration not stated)	-4.73
CN(C)c1cccc(C(=O)N2CCCc3cc(OC(F)(F)F)ccc32)c1	-9.8
CN(C)c1ncc(C2Nc3cc(Cl)ccc3C3=NCCCN32)cn1 (configuration not stated)	-5.74
Fc1cccc(CN2C[C@@H]3COC[C@]3(COCc3ccncc3)C2)c1	-1.32
CCN(CC)C(=O)c1c(Br)cnn1CC	-2.09
CCCNc1ncc(CN2CCOC(Cc3cccc(F)c3)C2)cn1 (configuration not stated)	-10.7
Cc1cncc(C(=O)N(c2ccc(F)cn2)C2CCOCC2)c1	5.37
Cc1ccc(CN2CC[C@H]3C(=O)N(Cc4cccnc4)CCO[C@H]3C2)o1	-8.65

SMILES	cytotoxicity at 70.5 h [%]
CCN(Cc1ccc2c(c1)OCO2)S(=O)(=O)N(C)C	0.18
CC(=O)N1C[C@H](NC(=O)c2csc(C(C)C)c2)[C@@H](C(C)C)C1	14.4
CC(C)C[C@@H](CO)n1cc(-c2cncnc2)nn1	1.71
CCC(=O)Nc1ccc(F)cc1OC	14.6
O=C(COCc1ccccc1Cl)Nc1ccnn1CC1CCOC1 (configuration not stated)	-18.3
CCC1CCCCN1C(=O)c1ccnc(N(C)C)c1 (configuration not stated)	-0.362
CCNC(=O)CCC(=O)N1CCC(Oc2cc(C)ccc2C)CC1	-19.2
CC(C)c1nc(C2CCCN2CC(=O)Nc2cccnc2)no1 (configuration not stated)	-14
Cc1csc2c(=O)n3c(nc12)CCN(C(=O)c1cccnc1)CC3	-19.9
CCOCCN1CCN(Cc2nnc(-c3occc3C)o2)CC1CC (configuration not stated)	-5.31
CN(C)C(=O)N1C[C@@H]2CC[C@H](C1)N(S(=O)(=O)c1cccnc1)C2	-9.57
Cn1nccc1-c1cnc2n1CCC21CCN(C(=O)C2(C)CC2)CC1	-11
Cc1ccc(CN2CCN(CC3CC3)[C@@H]3CS(=O)(=O)C[C@@H]32)cc1C	-6.12
c1sc(C2CCCC2)nc1CN1CCn2c(nnc2C2CC2)C1	4.56
CC(C)NC(=O)[C@H]1C[C@H]2OCC[C@H]2N(Cc2ccc3ccccc3n2)C1	-0.387
COc1ncc(-c2nccn2-c2ccccc2CN2CCOCC2)cn1	-7.32
CCNc1cc2c(nn1)CCN(C(=O)c1cc3cccc(C)c3o1)C2	-2.31
Cn1ccnc1CN1CC[C@H](O)[C@@H](n2ccc(=O)[nH]c2=O)CC1	-3.14
Cc1[nH]c2ccccc2c1CCNC(=O)N1CCC2(C1)OCCO2	-17.8
CCc1noc(C(C)N2CCCN(Cc3noc(C4CC4)n3)CC2)n1 (configuration not stated)	-13.5
c1cncc(-c2nnc([C@H]3CCN(CC4CCCCC4)C3)o2)c1	-6.55
CCOC(=O)Cc1csc(NC(=O)c2cc(=O)c(OC)c[nH]2)n1	2.05
O=C(CS(=O)(=O)Cc1nnnn1C1CC1)NCCc1ccccc1	-3.81

SMILES	cytotoxicity at 70.5 h [%]
CC[C@H](C)[C@H](N)C(=O)N1CC(=O)c2sc(Nc3ccc(F)cc3)nc2C1	7.24
CCNC(=O)CN1CCSC2(CCCCC2)C1	-11.1
N#Cc1cccnc1N[C@@H]1c2ccccc2C[C@@H]1O	-16.4
Cc1nccn1[C@@H]1CC[C@@H](NC(=O)CCCn2cncn2)[C@H]1O	16.1
O=C(O)C(c1ccc2c(c1)OCCO2)N1CCCC1 (configuration not stated)	-3.29
Cc1ncc2c(n1)CN(Cc1noc(C3CC3)n1)CC2	15.6
Cc1nc(CN2C(=O)CC[C@@H]3[C@H]2CCN3C2CCOC2)cs1 (some centres not stated)	1.29
NCC(=O)N1CCC(c2ccnc(Nc3cc(C(F)(F)F)ccn3)n2)C1 (configuration not stated)	16.8
O=S1(=O)NCC2(CCN(c3ncc(F)cn3)CC2)COc2ccccc21	-0.496
COc1ccc(C(C(=O)O)N2CCC(O)(c3cccnc3)CC2)cc1Cl (configuration not stated)	-9.89
CCN1CCN(C(=O)CCc2c(C)noc2Cl)CC1	-13.8
COc1cc(N2C[C@@H]3COC[C@]3(COCc3ccncc3)C2)ncn1	8.15
Cc1nn(C)c2cn(C(C)C(=O)NCc3ccc(F)cc3)nc12 (configuration not stated)	-3.15
Cc1nnsc1CN(C)Cc1ccc(C(=O)Nc2sccc2C#N)cc1	-3.25
CNC(=O)CS(=O)(=O)C1CCN(S(=O)(=O)C2CC2)CC1	-3.01
CCN1CCO[C@@H]2CN(C(=O)NCc3ccccc3)CC[C@@H]2C1	-4.68
Cc1ccccc1-c1cc(C(=O)N2CCn3c(C)nnc3C2)[nH]n1	0.102
CC1(C)OCC2(CO1)CN(C(=O)c1ccccc1Cl)C2	-1.63
CCCNC(=O)CCc1ccnc2ccccc12	-14
CC(C)c1cc(NC(CCO)c2ccccc2)n2nccc2n1 (configuration not stated)	3.68
N#CCCN(Cc1ccccn1)Cn1cc(Cl)cn1	29.9
Cc1occc1C(=O)N1CCCC2(CCN(c3ccsc3)C2=O)C1 (configuration not stated)	-6.53
COCCN1CCC(CNC(=O)C2(c3ccc(Br)cc3)CCCC2)C1 (configuration not stated)	-0.291

SMILES	cytotoxicity at 70.5 h [%]
CSCC(C)(O)CNC(=O)Nc1cc(C)cc(C)c1 (configuration not stated)	-5.72
CC(C)(C)CC(=O)NS(=O)(=O)c1ccc(C#N)cc1C(F)(F)F	13.5
O=C1COC2(CCN(CC3CC3)CC2)CN1c1ccsc1	-8.69
Cn1cc(CN2CC[C@H](O)[C@@H]2Cc2ccccc2)cn1	-0.0718
CCc1nc(C)c(CC(=O)N2CCC3(CC2)OCCCC3O)c(=O)[nH]1 (configuration not stated)	-6.44
CN(C)S(=O)(=O)c1ccc(=O)n(CC2CCCO2)c1 (configuration not stated)	-1.56
CN(C)CCN(Cc1ccc(C(F)(F)F)cc1)C(=O)c1cc[nH]n1	16.2
CC(C)(CO)CCCNC(=O)NC1(c2cccc(F)c2)CC1	-8.07
Cc1cc(NCc2cc3n(n2)CCCN(C(=O)C2CCC2)C3)nc(N)n1	-1.07
CC(C)Oc1ccc2c(NC(=O)CN(C)C)nn(CC(F)(F)F)c2c1	-19
CN(C)c1cc(C(=O)NCC2(c3ccc(F)cc3)CC2)ccn1	-1.65
Cc1ccc2c(n1)N(Cc1ccncc1)CCN(S(C)(=O)=O)C2	-10
Cc1cnn(CC2CN(CC(=O)N(C)Cc3ccccc3)CCO2)c1 (configuration not stated)	2.55
COc1c(F)cc(-c2cn(CCn3c(C)cc(C)nc3=O)nn2)cc1Cl	-2.6
c1ccc(C[C@H]2CN(Cc3nccs3)CC[C@H]2OCC2CC2)cc1	-11.5
CC(=O)N1N=C(c2ccccc2)OC1C(=O)NCCc1cccc(Cl)c1 (configuration not stated)	-19.7
c1ccc(-n2ncc(CN3CCCC(Cn4cncn4)C3)n2)cc1 (configuration not stated)	0.701
CCN1CCC(CNC(=O)Nc2cnn(CC(N)=O)c2)C1 (configuration not stated)	-8.69
Cc1c(NCc2ccccc2C#N)cccc1S(=O)(=O)NC1CC1	5.79
CCN1CCN(c2ccc(CNC(=O)Cc3c(C)noc3C)cn2)CC1	-10.4
